Results: ChEMBL document CHEMBL1156426, “Structure-based inhibitor design for an enzyme that binds different steroids: a potent inhibitor for human type 5 17beta-hydroxysteroid dehydrogenase” (J Biol Chem, 2007)

What was measured:
[1] = target: T1, Aldo-keto reductase family 1 member C3 (Homo sapiens, UniProt P42330); test: Inhibition of human 17beta HSD5 in HEK cells; format: cell-based, HEK293
T1 sequence (P42330 whole entry): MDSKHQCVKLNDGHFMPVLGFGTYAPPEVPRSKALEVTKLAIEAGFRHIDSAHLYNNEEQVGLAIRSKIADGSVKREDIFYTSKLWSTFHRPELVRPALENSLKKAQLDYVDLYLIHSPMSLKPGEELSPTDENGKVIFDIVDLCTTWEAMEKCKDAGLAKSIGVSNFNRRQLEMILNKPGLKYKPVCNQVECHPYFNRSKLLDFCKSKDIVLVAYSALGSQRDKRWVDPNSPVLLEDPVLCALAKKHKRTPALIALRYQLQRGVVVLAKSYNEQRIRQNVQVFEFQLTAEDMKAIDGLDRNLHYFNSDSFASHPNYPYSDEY

[2] = target: T1, Aldo-keto reductase family 1 member C3; test: Inhibition of human 17beta HSD5 mediated conversion of testosterone to delta-4-androstene-3,17-dione

## COCCOc1cc2c(cc1OC(N)=O)[C@H]1CC[C@@]3(C)[C@@H](CC[C@@]34CCC(C)(C)C(=O)O4)[C@@H]1CC2
[1]
  IC50: 9.5 nM

## CC1(C)CC[C@@]2(CC[C@H]3[C@@H]4CCc5cc(C(N)=O)ccc5[C@H]4CC[C@@]32C)OC1=O
[2]
  Ki: 6.9 nM
[1]
  IC50: 3.2 nM

## COCCOc1cc2c(cc1C#N)[C@H]1CC[C@@]3(C)[C@@H](CC[C@@]34CCC(C)(C)C(=O)O4)[C@@H]1CC2 [EM1396]
[1]
  IC50: 13 nM
